Data on 32 compounds can be found in article PMC12040169 (PLOS Biology, 2025).

This data set can be described thus: in vitro. The conditions noted are these: human, hela cells, % viability.
For the compound `CSc1nnc(CC2CCN(C(=O)c3ccccc3C(C)=O)CC2)n1C` [CBK306720], the viability at 28.5 h, 10 µM is 111%.

Consider `Cc1ccc(OCc2occc2C(=O)NCCn2ccnc2C)cc1` [CBK306725], for which the viability at 28.5 h, 10 µM is 93.7%.

As to `CN1CC(C(=O)N(C)Cc2nc(-c3ccccc3)no2)NC1=O` (centres unmarked) [CBK306727], the viability at 28.5 h, 10 µM was determined as 108%.

Regarding `CCn1cc(CN(CC(C)C)C(=O)c2ccccc2C#N)cn1` [CBK306729], the viability at 28.5 h, 10 µM was 102%.

With `Cn1ncnc1CCNS(=O)(=O)c1cccc(C(=O)N2CCCCC2)c1` [CBK306731], the viability at 28.5 h, 10 µM was 101%.

On to `COCCN(C)c1nc2c(c(=O)[nH]1)Cc1ccccc1OC2` [CBK306737], for which the viability at 28.5 h, 10 µM is 105%.

`CCCn1ccnc1CNc1nc(C(C)(C)C)nc2c1cnn2C` [CBK306739]: the viability at 28.5 h, 10 µM was found to be 91.3%.

Regarding `CO[C@@]12CC[C@@H](O)C[C@@H]1N(C(=O)c1cccc3c1NCCC3)CC2` [CBK306741], the viability at 28.5 h, 10 µM was found to be 109%.

On to `COCCC(=O)NCC1Cc2cc(F)cc(-c3ccc(C(C)=O)s3)c2O1` (centres unmarked) [CBK306742], for which the viability at 28.5 h, 10 µM stood at 109%.

With `COc1c[nH]c(C(=O)NC(CCn2ccnc2)c2ccccc2)cc1=O` (centres unmarked) [CBK306743], the viability at 28.5 h, 10 µM was 94%.

With `CC(=O)N1CCc2c(nc(N(C)C)nc2NCCCOC(C)C)C1` [CBK306745], the viability at 28.5 h, 10 µM was found to be 84.4%.

As for `COC(=O)N1CCCCC1C(=O)NCCc1nc(C)cc(C(F)(F)F)n1` (centres unmarked) [CBK306752], the viability at 28.5 h, 10 µM was determined as 94.2%.

Consider `O=C(c1cncs1)N1CCn2nc(C(O)Cc3ccccc3)cc2C1` (centres unmarked) [CBK306754], for which the viability at 28.5 h, 10 µM amounted to 90.6%.

In the case of `CN(Cc1nc(-c2ccccc2)no1)C(=O)C1CCOC1` (centres unmarked) [CBK306755], the viability at 28.5 h, 10 µM was determined as 107%.

In the case of `O=C(c1cn2cc(-c3cccs3)n(CC3CC3)c(=O)c2n1)N1CCCC1` [CBK306756], the viability at 28.5 h, 10 µM came to 92.8%.

Regarding `CN(Cc1nc2c(s1)CCCC2)C(=O)COc1ccc2nncn2n1` [CBK306758], the viability at 28.5 h, 10 µM was 98.9%.

For the compound `COc1ccc(-n2ncc3c2CC(C)(C)CC3NS(C)(=O)=O)cc1` (centres unmarked) [CBK306759], the viability at 28.5 h, 10 µM stood at 88.7%.

On to `CCc1nccn1CCC(=O)NC1CCN(c2ccc(F)cc2)CC1` [CBK306760], for which the viability at 28.5 h, 10 µM stood at 90.1%.

As for `CN(CC(=O)NCC1CCN(c2cccc(Cl)c2)C1)Cc1cccnc1` (centres unmarked) [CBK306761], the viability at 28.5 h, 10 µM turned out to be 93.4%.

For the compound `COc1cc(OC)cc(-c2c(C)ncnc2OC)c1` [CBK306765], the viability at 28.5 h, 10 µM was 91.4%.

In the case of `CC(=O)N1CCn2nc(C(=O)N(CCO)Cc3ccccc3)cc2C1` [CBK306769], the viability at 28.5 h, 10 µM was determined as 89.3%.

Consider `CCCS(=O)(=O)NC1CC(C)(C)Cc2c1cnn2-c1ccc(F)cc1` (centres unmarked) [CBK306770], for which the viability at 28.5 h, 10 µM is 113%.

As for `CCn1nc(C)c(NC(=O)CN(C)Cc2ccccc2C(F)(F)F)c1C` [CBK306771], the viability at 28.5 h, 10 µM came to 106%.

Take `CN(C)S(=O)(=O)CCNC(=O)c1ccc(-c2ccccc2CO)cc1` [CBK306773]: the viability at 28.5 h, 10 µM worked out at 95.6%.

Regarding `O=C(c1ccccn1)C1CCCN(c2nccc(CCC(F)(F)F)n2)C1` (centres unmarked) [CBK306775], the viability at 28.5 h, 10 µM is 109%.

Consider `CCCc1cc(C(=O)N2CCCC(COc3cccc(F)c3)C2)[nH]n1` (centres unmarked) [CBK306776], for which the viability at 28.5 h, 10 µM is 85.3%.

Consider `Cn1c(=O)n(C)c2cc(S(=O)(=O)NCC3(O)CCCNCC3)ccc21` (centres unmarked) [CBK306777], for which the viability at 28.5 h, 10 µM was 84.9%.

`CC(=O)OCc1c(C)cc(C)c(CN(C)C(C)c2ccon2)c1C` (centres unmarked) [CBK306780]: the viability at 28.5 h, 10 µM is 79.3%.

Take `CN(CCN1CCOCC1)c1nc2c(c(=O)[nH]1)Cc1ccccc1OC2` [CBK306783]: the viability at 28.5 h, 10 µM was 75.4%.

Regarding `CC(=O)Nc1ccc(C(=O)N(Cc2ccccn2)CC2CCCO2)cn1` (centres unmarked) [CBK306784], the viability at 28.5 h, 10 µM stood at 83.7%.

Consider `CCn1c(CC2CCN(c3ncc(C#N)c(N)n3)CC2)nn(C)c1=O` [CBK306788], for which the viability at 28.5 h, 10 µM is 93.3%.

Turning to `COc1ccc(-n2ncc3c2CC(C)(C)CC3N)cc1` (centres unmarked) [CBK306789], the viability at 28.5 h, 10 µM worked out at 80%.

Usually viability stands for a read-out of living cells in per cent, often relative to untreated cells.
